Entries after “also recorded” stand apart in the source; their conditions may differ. Structures can show the parent of a compound that is named as a salt.
Assays:
[1] = system: rats; test: Sleep quantity, architecture and quality by EEG/EMG telemetry; assay type: in vivo, rat; conditions: 10 mg/kg PO
Method: All surgical and plethysmographic studies were approved by the IACUC committee of Galleon Pharmaceuticals. The study used rats implanted with dual biopotential electrodes that permitted continuous and simultaneous telemetric recordings of electroencephalogram (EEG) and electromyogram (EMG) waveforms. Three treatment conditions were assessed for their effects on sleep quantity, architecture, and quality: baseline (drug-naïve), (31a) (10 mg/kg PO) and vehicle (equal volume PO). Baseline and (31a) treatment study days were randomized. However, vehicle alone was assessed after each rat had completed drug nave and compound (31a) evaluations.
Standard aseptic technique was used for all surgical procedures. […]
Rats with implanted telemeters were allowed to remain in their home cages during data collection. […] EEG and EMG waveforms were recorded between 8 am and 3 pm each study day. […] For each rat, the three telemetry signals (EEG, EMG, and temperature) were routed from the receiver to the PowerLab and recorded using LabChart. […]
The principal aspects of these analyses were to quantify the magnitude of the EMG signal (i.e., the animals activity level) and the relative densities of EEG delta waves (0.5 to 4 Hz; predominant in NREM sleep) and EEG theta waves (6 to 10 Hz; predominant in REM sleep) during each 4-second epoch. […]

[2] = system: anesthetized rats; test: Anesthetized rat spirometry screening assay (ventilatory activity, minute volume); assay type: in vivo; conditions: 0.3 mg/kg IV bolus, increase in minute volume (VE), read-out: VE % Inc @ 0.3 mg/kg IV
How it was run: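 Urethane-anesthetized (1.5 g/kg i.v.) rats with tracheal cannula to pneumotachometer; minute volume derived from respiratory rate × tidal volume. Compounds given as i.v. bolus at 0.1 and/or 0.3 and/or 3 mg/kg, monitored at least 6 min; data as 30 s averages.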

CCCNc1nc(NC)nc2c(NCC(C)(C)O)nc(NC)nc12 [Compound 31a, 1-(2,6-Bis-methylamino-8-propylamino-pyrimido[5,4-d]pyrimidin-4-ylamino)-2-methyl-propan-2-ol Hydrochloride]
effects on sleep quantity, architecture, or quality [1]: not associated with any statistically significant effects | effects on sleep architecture ([1]; compared to baseline (drug-naive), FIG. 24, Hydrochloride, 10 mg/kg): No significant differences; also recorded: does not produce effects | change in vivo at 0.3 mg/kg [2]: 69%

From US10294228B2, “Breathing control modulating compounds, and methods of making and using same” (NEURAD LTD., priority 2015, dated 2019)
